# Source: patent publication US12686668B2, “Leukotriene synthesis inhibitors” (Naegis Pharmaceuticals Inc., priority 2019, dated 2026)
# pIC50: −log10 of the molar value. Where two headings read alike, the source gives them in different places.
# What was measured:
# AA-induced ear edema = test: Arachidonic acid (AA) induced mouse ear edema model; format: in vivo, CD-1 mice; conditions: 4 hrs and 1 hr before AA 2 mg/ear, mice; for % Inhibition AA-Induced ear edema (0.3 mg/ear): topical 0.3 mg/ear; for % Inhibition AA-Induced ear edema (1 mg/ear): topical 1 mg/ear
# Method: One group serves as a control and receives 20 μL of vehicle applied to the pinna of each ear (10 μL to the inside and 10 μL to the outside of the pinna). One or more additional groups serve as test groups. The test compound was applied to the pinna of one ear of the mouse in a 20 μL volume (10 μL to the inside and 10 μL to the outside of the pinna). Test compound or control vehicle (acetone/1% DMSO) was applied topically to the right ear 4 and 1 hour before the application of 2 mg/ear AA as a stimulus to both the inner and outer surfaces of CD-1 mice. The left ears received vehicle (acetone/1% DMSO) alone. The animal was lightly anesthetized again using isofluorane to enable application of the stimulus. For the control group, arachidonic acid (2 mg/ear) was applied as the stimulus to the pinna of one ear only, in a total volume of 20 μL of acetone (10 μL applied to the inside and 10 μL to the outside of the pinna). The other ear received 20 μL of acetone. This served to determine the increase in ear weight due to arachidonic acid in the absence of test compounds. For the test groups, arachidonic acid (2 mg/ear) was applied as the stimulus to the pinna of each ear, in a total volume of 20 μL of acetone (10 μL applied to the inside and 10 μL to the outside of the pinna). The animal was allowed to recover after application of the stimulus in each case. After 60 minutes the animal was euthanized and a standard biopsy sample was taken from each ear using a 6 mm skin biopsy punch (Acuderm). Ear edema was determined by the increase in weight of the tissue due to accumulation of fluid as a result of plasma extravasation. The ears were weighed separately using a balance suitable to record 0.1 mg. For the control group, the difference in ear weights was determined by subtracting the weight of the unstimulated ear from the stimulated ear, and this was a measure of the increase in ear weight due to edema. The percentage increase in ear weight was determined by dividing the increase in stimulated ear weight by the unstimulated ear weight and multiplying by 100. For the test groups, the difference in ear weights was determined by subtracting the weight of the untreated ear from the weight of the ear treated with test compound. The percent inhibition of the increase in ear weight for ears treated with the test compound was estimated by first subtracting the mean ear weight of the untreated controls from each tissue to determine the increase in tissue weight due to application of the arachidonic acid. The percent inhibition=1−(test drug stimulated ear (mg)/control stimulated ear (mg))×100. In Table 5, the data from inhibition of AA-induced ear edema in mice by topical application of compounds is provided. Compounds (0.3 or 1 mg/ear) were applied topically to the ear 4 hrs and 1 hr prior to application of arachidonic acid (AA; 2 mg/ear).
# [1] = tested on: LTB4 production in porcine or human whole blood; test: Whole blood HPLC assay, inhibition of LTB4 production; format: cell-based; conditions: 5 point curve, porcine or human whole blood (not specified)
# Procedure, shortened: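 Porcine or human whole blood was pre-incubated 30 min with compound, then stimulated 20 min at room temperature with 20 μM A23187 (porcine blood also received 20 μM arachidonic acid). Plasma LTB4 was extracted on C18 and quantified by HPLC against reference standards. IC50 from a 5-point curve, with inhibition relative to controls.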
# [2] = tested on: LTB4 production in MC/9 cells; test: MC/9 HPLC assay, inhibition of LTB4 production; format: cell-based; conditions: Mus musculus
# Procedure, shortened: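 MC/9 cells (3×10^6 in HBSS) pre-incubated 30 min with compound, then stimulated 20 min at room temperature with 1 μM A23187. After methanol quench and C18 solid-phase extraction, LTB4 and LTC4 quantified by HPLC against reference standards; inhibition relative to control samples.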
# [3] = MC9, Table 2 column 4, no concentration in head (1 μM according to b732), read-out: % Inhibition LTB4
SMILES,% Inhibition AA-Induced ear edema (0.3 mg/ear) (AA-induced ear edema),% Inhibition AA-Induced ear edema (1 mg/ear) (AA-induced ear edema),pIC50 [1],"inhibition at 1 µM ([2]; MC9, 1 μM, read-out: % inhibition LTB4 (1 μM)) [%]","inhibition at 1 µM [2, 3] [%]"
"CCC(O)(CCc1ccc(Oc2nc3c(SC)cccc3s2)c(OC)c1)C(F)(F)F (stereo not drawn) [Compound 104, 1-{3-methoxy-4-[(4-methylsulfanyl-1,3-benzothiazol-2-yl)oxy]phenyl}-3-(trifluoromethyl)pentan-3-ol]",30-50%,50-70%,6.00 to 7.00,90,> 90
"CC(O)(CCc1ccc(OCc2ccc3ccccc3n2)cc1)C(F)(F)F (stereo not drawn) [Compound 183, 1,1,1-trifluoro-2-methyl-4-[4-(quinolin-2-ylmethoxy)phenyl]butan-2-ol]",30-50%,>90%,6.00 to 7.00,–,> 90
